Results taken from US9193721B2, “Fused derivatives as PI3Kδ inhibitors” (Incyte Holdings Corporation, priority 2010, dated 2015).
Counter-ions that a name gives are not always drawn.

Key:
[1] = molecular target: T1, PI3Kδ (p110δ/p85α) (Homo sapiens, UniProt O00329); experiment: PI3Kδ scintillation proximity assay (assay A); format: biochemical; details: 20 μM PIP2, 20 μM ATP, 4 nM PI3Kδ, 210 minutes, room temperature
T1 construct: purchased Millipore (Bedford, Mass.)
Method: PI3Kδ Scintillation Proximity Assay
[γ-33P] ATP (10 mCi/mL) was purchased from Perkin-Elmer (Waltham, Mass.). […] PI3Kδ (p110δ/p85α) was purchased from Millipore (Bedford, Mass.). ATP, MgCl2, DTT, EDTA, MOPS and CHAPS were purchased from Sigma-Aldrich (St. Louis, Mo.). Wheat Germ Agglutinin (WGA) YSi SPA Scintillation Beads was purchased from GE healthcare life sciences (Piscataway, N.J.).
The kinase reaction was conducted in polystyrene 384-well matrix white plate from Thermo Fisher Scientific in a final volume of 25 μL. Inhibitors were first diluted serially in DMSO and added to the plate wells before the addition of other reaction components. The final concentration of DMSO in the assay was 0.5%. The PI3K assays were carried out at room temperature in 20 mM MOPS, pH 6.7, 10 mM MgCl2, 5 mM DTT and CHAPS 0.03%. Reactions were initiated by the addition of ATP, the final reaction mixture consisted of 20 μM PIP2, 20 μM ATP, 0.2 μCi [γ-^33P] ATP, 4 nM PI3Kδ. Reactions were incubated for 210 minutes and terminated by the addition of 40 μL SPA beads suspended in quench buffer: 150 mM potassium phosphate pH 8.0, 20% glycerol. 25 mM EDTA, 400 μM ATP. The final concentration of SPA beads is 1.0 mg/mL. After the plate sealing, plates were shaken overnight at room temperature and centrifuged at 1800 rpm for 10 minutes, the radioactivity of the product was determined by scintillation counting on Topcount (Perkin-Elmer). IC50 determination was performed by fitting the curve of percent control activity versus the log of the inhibitor concentration using the GraphPad Prism 3.0 software.

[2] = test system: Pfeiffer cell line (diffuse large B cell lymphoma); experiment: Pfeiffer cell proliferation assay; format: cell-based; details: Homo sapiens, [3H]-thymidine incorporation after 3-4 days plus 12 hours
Method: Pfeiffer Cell Proliferation Assay
Pfeiffer cell line (diffuse large B cell lymphoma) was purchased from ATCC (Manassas, Va.) and maintained in the culture medium recommended (RPMI and 10% FBS). To measure the anti-proliferation activity of the compounds, the Pfeiffer cells were plated with the culture medium (2×10^3 cells/well/per 200 μl) into 96-well ultra-low binding plates (Corning, Corning, N.Y.), in the presence or absence of a concentration range of test compounds. After 3-4 days, [^3H]-thymidine (1 μCi/well) (PerkinElmer, Boston, Mass.) in PBS was then added to the cell culture for an additional 12 hours before the incorporated radioactivity was separated by filtration with water through GF/B filters (Packard Bioscience, Meridenj, Conn.) and measured by liquid scintillation counting with a TopCount (Packard Bioscience).

T1 sequence (O00329 whole entry): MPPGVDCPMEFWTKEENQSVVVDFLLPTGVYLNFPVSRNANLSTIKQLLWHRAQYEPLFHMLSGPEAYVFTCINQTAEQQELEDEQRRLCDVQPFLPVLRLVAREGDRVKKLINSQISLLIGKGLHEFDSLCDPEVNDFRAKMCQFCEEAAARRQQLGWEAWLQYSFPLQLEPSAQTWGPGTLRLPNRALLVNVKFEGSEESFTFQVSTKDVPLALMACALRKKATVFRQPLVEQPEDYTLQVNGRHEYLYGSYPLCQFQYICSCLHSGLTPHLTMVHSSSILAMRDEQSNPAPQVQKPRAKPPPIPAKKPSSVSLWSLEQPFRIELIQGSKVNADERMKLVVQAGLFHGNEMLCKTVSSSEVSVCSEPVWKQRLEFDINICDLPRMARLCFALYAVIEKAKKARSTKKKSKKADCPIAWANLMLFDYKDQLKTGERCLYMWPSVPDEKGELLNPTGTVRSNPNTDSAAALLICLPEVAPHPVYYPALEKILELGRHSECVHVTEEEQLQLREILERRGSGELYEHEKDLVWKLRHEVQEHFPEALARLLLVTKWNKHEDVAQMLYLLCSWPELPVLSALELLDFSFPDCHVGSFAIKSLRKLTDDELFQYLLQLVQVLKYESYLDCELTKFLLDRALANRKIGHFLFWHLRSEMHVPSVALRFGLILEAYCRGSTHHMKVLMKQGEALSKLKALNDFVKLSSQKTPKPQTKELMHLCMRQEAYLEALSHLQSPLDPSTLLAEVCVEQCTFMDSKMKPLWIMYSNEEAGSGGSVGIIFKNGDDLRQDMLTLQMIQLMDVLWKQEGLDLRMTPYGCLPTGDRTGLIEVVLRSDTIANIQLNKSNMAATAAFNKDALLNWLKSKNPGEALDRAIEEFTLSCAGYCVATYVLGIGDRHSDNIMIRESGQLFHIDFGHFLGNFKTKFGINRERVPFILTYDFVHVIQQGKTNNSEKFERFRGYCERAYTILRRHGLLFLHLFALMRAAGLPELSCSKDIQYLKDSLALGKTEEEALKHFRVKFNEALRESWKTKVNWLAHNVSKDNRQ
T1 sequence (P27986 whole entry partner): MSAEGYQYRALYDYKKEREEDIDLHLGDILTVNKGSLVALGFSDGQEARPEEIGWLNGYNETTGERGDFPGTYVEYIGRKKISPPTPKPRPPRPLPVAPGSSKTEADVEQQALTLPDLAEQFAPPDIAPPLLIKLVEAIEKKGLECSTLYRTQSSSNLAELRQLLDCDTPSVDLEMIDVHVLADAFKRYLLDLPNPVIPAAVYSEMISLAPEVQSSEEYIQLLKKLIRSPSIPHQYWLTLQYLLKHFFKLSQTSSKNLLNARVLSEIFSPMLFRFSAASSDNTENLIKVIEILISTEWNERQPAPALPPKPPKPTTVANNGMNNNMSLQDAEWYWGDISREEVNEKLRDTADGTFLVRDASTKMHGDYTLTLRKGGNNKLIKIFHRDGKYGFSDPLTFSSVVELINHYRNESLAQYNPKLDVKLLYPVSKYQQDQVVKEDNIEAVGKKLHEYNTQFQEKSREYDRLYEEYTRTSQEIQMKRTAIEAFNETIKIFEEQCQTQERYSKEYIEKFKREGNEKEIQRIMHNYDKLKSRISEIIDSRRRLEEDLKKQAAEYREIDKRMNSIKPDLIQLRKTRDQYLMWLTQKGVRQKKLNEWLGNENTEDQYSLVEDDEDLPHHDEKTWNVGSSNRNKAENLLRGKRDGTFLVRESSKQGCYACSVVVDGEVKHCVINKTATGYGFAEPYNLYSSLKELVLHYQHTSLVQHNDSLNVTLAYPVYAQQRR

Compound | IC50 [1] | IC50 [2]
COCC(=O)N1CCN(c2c(C(C)Nc3ncnc4[nH]cnc34)cc(Cl)c3cncn23)CC1 (stereo not drawn) [Example 8, N-(1-{8-chloro-5-[4-(methoxyacetyl)piperazin-1-yl]imidazo[1,5-a]pyridin-6-yl}ethyl)-9H-purin-6-amine] | < 50 nM | > 3000 nM
CC(Nc1ncnc2[nH]cnc12)c1cc(Cl)c2cncn2c1N1CCN(C(=O)c2cnn(C)c2)CC1 (stereo not drawn) [Example 11, N-[1-(8-Chloro-5-{4-[(1-methyl-1H-pyrazol-4-yl)carbonyl]piperazin-1-yl}imidazo[1,5-a]pyridin-6-yl)ethyl]-9H-purin-6-amine] | < 50 nM | > 3000 nM
CC(Nc1ncnc2[nH]cnc12)c1cc(F)c2ccnn2c1-c1cccc(F)c1 (stereo not drawn) [Example 27, N-{1-[4-fluoro-7-(3-fluorophenyl)pyrazolo[1,5-a]pyridin-6-yl]ethyl}-9H-purin-6-amine] | < 50 nM | ≤ 100 nM
CCC(Nc1ncnc2[nH]cnc12)c1cc(Cl)c2cncn2c1-c1cccc(F)c1 (stereo not drawn) [Example 18, N-{1-[8-Chloro-5-(3-fluorophenyl)imidazo[1,5-a]pyridin-6-yl]propyl}-9H-purin-6-amine] | < 50 nM | 100 to 500 nM
CC(=O)N1CCN(c2c(C(C)Nc3ncnc4[nH]cnc34)cc(Br)c3cncn23)CC1 (stereo not drawn) [Example 30, N-{1-[5-(4-Acetylpiperazin-1-yl)-8-bromoimidazo[1,5-a]pyridin-6-yl]ethyl}-9H-purin-6-amine bis(trifluoroacetate)] | < 50 nM | 100 to 500 nM
COCCN1CCN(c2c(C(C)Nc3ncnc4[nH]cnc34)cc(Cl)c3cncn23)CC1 (stereo not drawn) [Example 12, N-(1-{8-Chloro-5-[4-(2-methoxyethyl)piperazin-1-yl]imidazo[1,5-a]pyridin-6-yl}ethyl)-9H-purin-6-amine] | 200 to 750 nM | 100 to 500 nM
CC(Nc1ncnc2[nH]cnc12)c1cc(Cl)c2nccn2c1-c1cccc(F)c1 (stereo not drawn) [Example 3, N-{1-[8-Chloro-5-(3-fluorophenyl)imidazo[1,2-a]pyridin-6-yl]ethyl}-9H-purin-6-amine] | 200 to 750 nM | 1000 to 3000 nM
CC(Nc1ncnc2[nH]cnc12)c1cc(Cl)c2cncn2c1-c1cccc(F)c1 (racemic) [Example 1, N-{1-[8-Chloro-5-(3-fluorophenyl)imidazo[1,5-a]pyridin-6-yl]ethyl}-9H-purin-6-amine] | < 50 nM | ≤ 100 nM
CC(Nc1ncnc2[nH]cnc12)c1cc(F)c2cncn2c1-c1cccc(F)c1 (stereo not drawn) [Example 29, N-{1-[8-Fluoro-5-(3-fluorophenyl)imidazo[1,5-a]pyridin-6-yl]ethyl}-9H-purin-6-amine] | < 50 nM | 500 to 1000 nM
CCC(Nc1ncnc2[nH]cnc12)c1cc(Cl)c2cnc(C)n2c1-c1cc(F)cc(F)c1 (stereo not drawn) [Example 20, N-{1-[8-Chloro-5-(3,5-difluorophenyl)-3-methylimidazo[1,5-a]pyridin-6-yl]propyl}-9H-purin-6-amine] | < 50 nM | 100 to 500 nM
Cc1ncc2c(Cl)cc(C(C)Nc3ncnc4[nH]cnc34)c(-c3cccc(F)c3)n12 (racemic) [Example 2, N-{1-[8-Chloro-5-(3-fluorophenyl)-3-methylimidazo[1,5-a]pyridin-6-yl]ethyl}-9H-purin-6-amine] | < 50 nM | 
CC(Nc1ncnc2[nH]cnc12)c1cc(Cl)c2cncn2c1-c1cccc(F)c1 (single isomer, unassigned) [1, isomer 2] | 50 to 200 nM | 
Cc1ncc2c(Cl)cc(C(C)Nc3ncnc4[nH]cnc34)c(-c3cc(F)cc(F)c3)n12 (stereo not drawn) [Example 19, N-{1-[8-Chloro-5-(3,5-difluorophenyl)-3-methylimidazo[1,5-a]pyridin-6-yl]ethyl}-9H-purin-6-amine] | < 50 nM | ≤ 100 nM
CCN(CC)c1c(C(C)Nc2ncnc3[nH]cnc23)cc(Cl)c2cnc(C)n12 (stereo not drawn) [Example 25, N-{1-[8-Chloro-5-(diethylamino)-3-methylimidazo[1,5-a]pyridin-6-yl]ethyl}-9H-purin-6-amine] | < 50 nM | 500 to 1000 nM

Now from value to compound:

IC50 [1] | IC50 [2] | Compound
50 to 200 nM | 500 to 1000 nM | CC(Nc1ncnc2[nH]cnc12)c1cc(Cl)c2cncn2c1N1CCN(CC#N)CC1 (stereo not drawn) [Example 13, (4-{8-Chloro-6-[1-(9H-purin-6-ylamino)ethyl]imidazo[1,5-a]pyridin-5-yl}piperazin-1-yl)acetonitrile]
< 50 nM | ≤ 100 nM | CC(Nc1ncnc2[nH]cnc12)c1cc(Cl)c2cncn2c1N1CC[C@H](O)C1 (stereo partly drawn) [Example 24, (3S)-1-{8-Chloro-6-[1-(9H-purin-6-ylamino)ethyl]imidazo[1,5-a]pyridin-5-yl}pyrrolidin-3-ol]
< 50 nM | > 3000 nM | CC(Nc1ncnc2[nH]cnc12)c1cc(Cl)c2cncn2c1N1CCN(C(=O)CC#N)CC1 (stereo not drawn) [Example 10, 3-(4-{8-Chloro-6-[1-(9H-purin-6-ylamino)ethyl]imidazo[1,5-a]pyridin-5-yl}piperazin-1-yl)-3-oxopropanenitrile]
< 50 nM | 500 to 1000 nM | CC(=O)N1CCN(c2c(C(C)Nc3ncnc4[nH]cnc34)cc(Cl)c3cncn23)CC1 (stereo not drawn) [Example 4, N-{1-[5-(4-Acetylpiperazin-1-yl)-8-chloroimidazo[1,5-a]pyridin-6-yl]ethyl}-9H-purin-6-amine]
< 50 nM | ≤ 100 nM | CC(Nc1ncnc2[nH]cnc12)c1cc(Cl)c2cncn2c1N1CCNCC1 (stereo not drawn) [Example 9, N-[1-(8-Chloro-5-piperazin-1-ylimidazo[1,5-a]pyridin-6-yl)ethyl]-9H-purin-6-amine dihydrochloride]
< 50 nM | 100 to 500 nM | CC(Nc1ncnc2[nH]cnc12)c1cc(Cl)c2cncn2c1N1CCN(C(=O)C2CC2)CC1 (stereo not drawn) [Example 7, N-(1-{8-Chloro-5-[4-(cyclopropylcarbonyl)piperazin-1-yl]imidazo[1,5-a]pyridin-6-yl}ethyl)-9H-purin-6-amine]
200 to 750 nM | 100 to 500 nM | CC(Nc1ncnc2[nH]cnc12)c1cc(Cl)c2cncn2c1N1CCN(CC2CC2)CC1 (stereo not drawn) [Example 17, N-(1-{8-Chloro-5-[4-(cyclopropylmethyl)piperazin-1-yl]imidazo[1,5-a]pyridin-6-yl}ethyl)-9H-purin-6-amine]
< 50 nM | ≤ 100 nM | CO[C@@H]1CCN(c2c(C(C)Nc3ncnc4[nH]cnc34)cc(Cl)c3cncn23)C1 (stereo partly drawn) [Example 21, N-(1-{8-Chloro-5-[(3R)-3-methoxypyrrolidin-1-yl]imidazo[1,5-a]pyridin-6-yl}ethyl)-9H-purin-6-amine]
50 to 200 nM | > 3000 nM | CC(Nc1ncnc2[nH]cnc12)c1cc(Cl)c2cncn2c1N1CCN(S(C)(=O)=O)CC1 (stereo not drawn) [Example 5, N-(1-{8-chloro-5-[4-(methylsulfonyl)piperazin-1-yl]imidazo[1,5-a]pyridin-6-yl}ethyl)-9H-purin-6-amine]
50 to 200 nM | ≤ 100 nM | CC(Nc1ncnc2[nH]cnc12)c1cc(Cl)c2cncn2c1N1CC[C@@H](O)C1 (stereo partly drawn) [Example 23, (3R)-1-{8-Chloro-6-[1-(9H-purin-6-ylamino)ethyl]imidazo[1,5-a]pyridin-5-yl}pyrrolidin-3-ol]
50 to 200 nM | ≤ 100 nM | CC(Nc1ncnc2[nH]cnc12)c1cc(Cl)c2cncn2c1N1CCN(C2CCC2)CC1 (stereo not drawn) [Example 15, N-{1-[8-Chloro-5-(4-cyclobutylpiperazin-1-yl)imidazo[1,5-a]pyridin-6-yl]ethyl}-9H-purin-6-amine]
